Results taken from patent publication US3962443A, “Antibacterial pharmaceutical compositions and processes for preparation thereof” (Dainippon Pharmaceutical Co., Ltd., priority 1972, dated 1976).
Values after ≈ are worked out from the molar mass of the structure shown. Where two headings read alike, the source gives them in different places.

Assays:
[1] = test system: Staphylococcus aureus Terajima; assay: In vitro antibacterial activity, MIC by serial dilution; assay type: cell-based; settings: nutrient broth pH 7.0, 37°C, 48 hours
Experimental: (§1) The minimum inhibitory concentration (MIC) was determined by the well
(§2) known serial dilution method.
(§3) Experimental conditions:?
(§4) Medium: nutrient broth, pH 7.0 (5 ml/tube)
(§5) Inoculum: 1 drop of 1 : 10^5 dilution of an overnight broth culture
(§6) Incubation temperature and time: 37°C for 48 hours

[2] = test system: Pseudomonas aeruginosa Tsuchijima; assay: as above; assay type: cell-based; settings: nutrient broth pH 7.0, 37°C, 48 hours
Experimental: as §1, §2, §3, §4, §5, §6

[3] = test system: Escherichia coli K-12; assay: as above; assay type: cell-based
Experimental: as §1, §2, §3, §4, §5, §6

[4] = test system: Salmonella typhimurium S-9; assay: In vivo efficacy against systemic infection with Salmonella typhimurium in mice; design: species or system mice (ddY-S); settings: for ED50: Salmonella enterica, TYPHIMURIUM, 336 h, twice a day for 4 days, 14 days observation; for number of the survived/the total number: 14 days
Experimental: (§7) In the Tables II to IV, the ED50 and ID50 values were calculated in accordance with the Behrens-Kaerber method [Arch. Exp. Path. Pharm., 162, 480 (1931)]. The compound numbers are those described in the Examples and compounds PA and AT-616 are as follows:
The numerical figures in the table show the number of the survived/the
(§8) total number. 0/8 means that all of 8 mice died. 8/8 means that all 8 mic
Experimental conditions.
Organism: Salmonella typhimurium S-9
(§9) Mice: male mice (ddY-S) weighing 20 g approximately
Infection: Intraperitoneal infection with 50 to 100 LD50 of a
bacterial suspension in nutrient broth (about 10^5 cells/mouse)
Medication: twice a day for 4 days from the day of infection.
Drug: an alkaline solution for parenteral administration and suspension i
0.2% CMC for oral administration
i.e.: intraperitoneal administration
p.o.: oral administration

[5] = test system: Pseudomonas aeruginosa No. 12; assay: In vivo efficacy against systemic infection with Pseudomonas aeruginosa in mice; design: species or system mice (ddY-S); settings: for ED50: twice, about 5 minutes and 6 hours after infection
Experimental: as §7, §8, §9

[6] = K12, Escherichia coli K-12, nutrient broth pH 7.0, 37°C, 48 hours, read-out: MIC
[7] = NO.12, 168 h, ip, 7 days, read-out: number of the survival/the total number (converted)
[8] = NO.12, 168 h, po, 7 days, read-out: number of the survival/the total number (converted)

| SMILES | MIC [1] [µg/mL] | MIC [2] [µg/mL] | MIC [3, 6] [µg/mL] | ED50 ([5]; NO.12, 168 h, ip, 7 days) [mg/kg] | ED50 ([5]; NO.12, 168 h, po, 7 days) [mg/kg] | ED50 ([4]; po) [mg/kg] | number of the survived/the total number ([4]; po, 12.5 mg/kg) | number of the survived/the total number ([4]; po, 25 mg/kg) | number of the survived/the total number ([4]; po, 50 mg/kg) | further results |
| --- | --- | --- | --- | --- | --- | --- | --- | --- | --- | --- |
| O=C(O)c1cn(Cc2ccccc2)c2nc(N3CCNCC3)ncc2c1=O [Compound 33, 8-Benzyl-5,8-dihydro-2-(1-piperazinyl)-5-oxopyrido [2,3-d]pyrimidine-6-carboxylic acid] | 100 (≈ 274 µM) | 10 (≈ 27.4 µM) | 3 (≈ 8.21 µM) | < 17.7 |  |  |  |  |  | ED50 ([4]; ip): 12.5 mg/kg; number of the survived/the total number ([4]; ip, 6.3 mg/kg): 1/8; number of the survived/the total number ([4]; ip, 12.5 mg/kg): 4/8; number of the survived/the total number ([4]; ip, 25 mg/kg): 7/8; responders at 25 mg/kg [5, 7]: 100% |
| CCn1cc(C(=O)O)c(=O)c2cnc(N3CCC(O)C3)nc21 (stereo not drawn) [Compound AT-616, reference compound] | 30 (≈ 98.6 µM) | 100 (≈ 329 µM) | 1 (≈ 3.29 µM) | > 100 | > 200 |  |  |  |  | responders at 100 mg/kg ([5]; NO.12, 168 h, ip, 100 mg/kg, 7 days, read-out: number of the survival/the total number (converted)): 37.5%; responders at 200 mg/kg [5, 8]: 12.5% |
| C=Cn1cc(C(=O)O)c(=O)c2cnc(N3CCNCC3)nc21.Cl [Compound 54, 5,8-Dihydro-2-(1-piperazinyl)-8-vinyl-5-oxopyrido[2,3-d] pyrimidine-6-carboxylic acid hydrochloride] | > 100 | 3 | 3 |  |  | 17.7 | 2/8 | 6/8 | 8/8 |  |
| C#CCN1CCN(c2ncc3c(=O)c(C(=O)O)cn(CC)c3n2)CC1 [Compound 38] | 10 (≈ 29.3 µM) | > 100 | 3 (≈ 8.79 µM) |  |  | 21 | 0/8 | 6/8 | 8/8 |  |
| CCn1cc(C(=O)O)c(=O)c2cnc(N3CCNCC3)nc21.Cl [Compound 11, 5,8-Dihydro-8-ethyl-2-(1-piperazinyl)-5-oxopyrido[2,3-d]pyrimidine-6-carboxylic acid hydrochloride] | 30 | 10 | 3 | < 17.7 | < 100 | < 35.4 |  |  | 8/8 | responders at 25 mg/kg [5, 7]: 100%; responders at 100 mg/kg ([5]; NO.12, 168 h, po, 100 mg/kg, 7 days, read-out: number of the survival/the total number (converted)): 87.5%; responders at 200 mg/kg [5, 8]: 100% |
| CCn1cc(C(=O)O)c(=O)c2cnc(N3CCN(Cc4ccc(OC)cc4)CC3)nc21 [Compound 17] | 10 (≈ 23.6 µM) | 100 (≈ 236 µM) | 3 (≈ 7.08 µM) |  |  |  |  |  |  |  |
| CCn1cc(C(=O)O)c(=O)c2cnc(N3CCNCC3)nc21 [Compound 1, 5,8-Dihydro-8-ethyl-2-(1-piperazinyl)-5-oxopyrido[2,3-d]pyrimidine-6-carboxylic acid] | 30 (≈ 98.9 µM) | 10 (≈ 33 µM) |  | 10.5 | 100 | 12.5 | 4/8 | 8/8 | 8/8 | MIC ([3]; Escherichia coli, K12, 48 h, pH 7): 1 µg/mL (≈ 3.3 µM); ED50 ([4]; ip): 6.3 mg/kg; number of the survived/the total number ([4]; ip, 6.3 mg/kg): 4/8; number of the survived/the total number ([4]; ip, 12.5 mg/kg): 8/8; number of the survived/the total number ([4]; ip, 25 mg/kg): 8/8; number of the survived/the total number ([4]; po, 6.3 mg/kg): 0/8; responders at 3.1 mg/kg ([5]; NO.12, ip, 168 h, read-out: number of the survival/the total number, ip, 3.1 mg/kg, 7 days): 12.5%; responders at 6.3 mg/kg ([5]; NO.12, ip, 168 h, read-out: number of the survival/the total number, ip, 6.3 mg/kg, 7 days): 25%; responders at 12.5 mg/kg ([5]; NO.12, ip, 168 h, read-out: number of the survival/the total number, ip, 12.5 mg/kg, 7 days): 50%; responders at 50 mg/kg ([5]; NO.12, ip, 168 h, read-out: number of the survival/the total number, ip, 50 mg/kg, 7 days): 100%; responders at 50 mg/kg ([5]; NO.12, po, 168 h, read-out: number of the survival/the total number, po, 50 mg/kg, 7 days): 0%; responders at 100 mg/kg ([5]; NO.12, po, 168 h, read-out: number of the survival/the total number, po, 100 mg/kg, 7 days): 50% |
